Data reported in PubChem BioAssay AID2060497 (Molecular Pharmacology Branch, DTP, NCI, 2025).

Tested on: 317291-083-R-J1-PDC complex spheroids, viability
Test: Anticancer human tumor 317291-083-R-J1-PDC patient-derived soft tissue sarcoma cell line growth inhibition [GQUAD]
Settings: for IC50: curve of first compound; for viability, T/C: stronger effect = lower value
Source text: DNA G-quadruplex Stabilizer Agents in Combinations in Complex Spheroids
A high-throughput screen of multi-cell type tumor spheroids was designed to identify active combinations of DNA G-quadruplex stabilizer agents and targeted small molecules. Complex spheroids include a stromal component modeled by human endothelial cells (HUVEC) and fibroblasts modeled by human mesenchymal stem cells (MSCs). The concentration ranges selected for each drug and investigational agent were based upon clinically achievable concentrations if the clinical Cmax of the agent was known.
Compounds. The drugs and investigational agents: pidnarulex (CX-5461; NSC782164), APTO-253 (NSC789042), BRACO-19 (NSC847499), peposertib (NSC802822), ceralasertib (NSC780249), elimusertib (NSC800525), camonsertib (NSC841442), AZD-1390 (NSC803789), olaparib (NSC753686), talazoparib (NSC767125), ART-558 (NSC835418), sotorasib (NSC818433), MRTX-1133 (NSC836407), SN-38 (NSC673596), topotecan (NSC609699), etoposide (NSC141540), doxorubicin (NSC123127), gemcitabine (NSC613327), 5-fluorouracil (NSC19893), paclitaxel (NSC125973), vemurafenib (NSC761431), panobinostat (NSC761190), R-306465 (JNJ-16241199; NSC773264), adavosertib (NSC754352), TP-3654 (NSC805149), carboplatin (NSC241240), KSQ-4279 (NSC840948), and staurosporine (NSC755774) were obtained from the National Cancer Institute (NCI) Developmental Therapeutics Program Chemical Repository (34). The FDA-approved anticancer drug set is available from the NCI Developmental Therapeutics Program. […] The stock solutions were prepared in dimethyl sulfoxide (DMSO, Sigma-Aldrich, St. Louis, MO, cat. D2650) at 800-fold the tested concentration and stored at -70 degrees C prior to their use. All drugs and investigational agents were tested over a range starting from a high concentration at or near the clinical Cmax and decreasing in half-log increments. If the clinical Cmax for an agent had not been determined, the highest concentration tested was 10 microM.
2.3 Cell Culture. All cells were maintained in an incubator at 37 degrees C and 5% CO2 with 95% humidity. The PDC lines were cultured according to standard operating procedures established by the NCI PDMR. All PDCs were thawed and cultured in Matrigel-coated flasks prepared with a working solution of 1X Ham's F-12 nutrient mix, without supplementation (Invitrogen, cat. 11765054), 100 U/mL penicillin-streptomycin (Invitrogen, cat. 15140122), and 2.5% Matrigel (Corning Inc., cat. 354248) for the first three passages. The 857933-349-R-J2-PDC line was cultured in 6C/Colon 1B media, which includes advanced DMEM/F-12 (Thermo Fisher Scientific, cat. 12634028), 10 mM HEPES (Thermo Fisher Scientific, cat. 15630080), 1X GlutaMAX supplement (Thermo Fisher Scientific, cat. 35050061), 0.1 mg/mL primocin (InvivoGen, cat. ant-pm-2), 10% defined fetal bovine serum, heat inactivated (HyClone Laboratories Inc., cat. SH30070.03HI), 50% L-WRN conditioned media (ATCC, cat. CRL-3276), 1.25 mM N-Acetyl-L-cysteine (Sigma-Aldrich, cat. A9165), 10 mM nicotinamide (Sigma-Aldrich, cat. N0636), 1X B-27 supplement (Thermo Fisher Scientific, cat. 17504044), 1X N-2 supplement (Thermo Fisher Scientific, cat. 17502048), 10 microM Y-27632 dihydrochloride (Tocris Bioscience, cat. 1254), and 50 ng/mL human EGF recombinant protein (Thermo Fisher Scientific, cat. PHG0311). The 485176-168-R4-J1-PDC line was cultured in Panc media, which includes all 6C/Colon 1B media components plus 100 ng/mL human FGF-10 (Thermo Fisher Scientific, cat. 100-26), 500 nM SB-431542 (Selleckchem, cat. S1067), and gastrin (Tocris, cat. 3006).
[…]

[1] = second compound 0.0316 µM, first compound 0.0316 µM
[2] = second compound 0.0316 µM, first compound 0.316 µM
[3] = second compound 0.1 µM, first compound 0.0316 µM
[4] = second compound 0.1 µM, first compound 0.316 µM
[5] = second compound 0.316 µM, first compound 0.0316 µM
[6] = second compound 0.316 µM, first compound 0.316 µM
[7] = second compound 1 µM, first compound 0.0316 µM
[8] = second compound 1 µM, first compound 0.316 µM
[9] = second compound 3.16 µM, first compound 0.0316 µM
[10] = second compound 3.16 µM, first compound 0.316 µM
[11] = second compound 10 µM, first compound 0.0316 µM
[12] = second compound 10 µM, first compound 0.316 µM
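Note: spheroids exposed to compounds for one week before readout.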
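Throughout, for viability, T/C: percent viability relative to DMSO vehicle wells taken as 100%.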

Compound: Cc1cccc(N(C)C(=O)C2C(O)CCN2c2nc(C)cc(C(F)(F)F)c2C#N)c1 (centres undefined) + CN(C)c1ccc(Nc2c3ccc(NC(=O)CCN4CCCC4)cc3nc3cc(NC(=O)CCN4CCCC4)ccc23)cc1
- IC50 (second compound 0.0316 µM): > 10000 nM
- IC50 (second compound 0.1 µM): > 10000 nM
- IC50 (second compound 0.316 µM): > 10000 nM
- IC50 (second compound 1 µM): 548 nM
- IC50 (second compound 3.16 µM): < 31.6 nM
- IC50 (second compound 10 µM): < 31.6 nM
- viability, T/C [1]: 101%
- viability, T/C (second compound 0.0316 µM, first compound 0.1 µM): 107%
- viability, T/C [2]: 93.1%
- viability, T/C (second compound 0.0316 µM, first compound 1 µM): 91.9%
- viability, T/C (second compound 0.0316 µM, first compound 3.16 µM): 85.5%
- viability, T/C (second compound 0.0316 µM, first compound 10 µM): 78.1%
- viability, T/C [3]: 107%
- viability, T/C (second compound 0.1 µM, first compound 0.1 µM): 99.2%
- viability, T/C [4]: 116%
- viability, T/C (second compound 0.1 µM, first compound 1 µM): 84.8%
- viability, T/C (second compound 0.1 µM, first compound 3.16 µM): 75.9%
- viability, T/C (second compound 0.1 µM, first compound 10 µM): 83.9%
- viability, T/C [5]: 103%
- viability, T/C (second compound 0.316 µM, first compound 0.1 µM): 93.3%
- viability, T/C [6]: 79.9%
- viability, T/C (second compound 0.316 µM, first compound 1 µM): 62.9%
- viability, T/C (second compound 0.316 µM, first compound 3.16 µM): 79.8%
- viability, T/C (second compound 0.316 µM, first compound 10 µM): 46.5%
- viability, T/C [7]: 68.3%
- viability, T/C (second compound 1 µM, first compound 0.1 µM): 51.1%
- viability, T/C [8]: 57.4%
- viability, T/C (second compound 1 µM, first compound 1 µM): 45.1%
- viability, T/C (second compound 1 µM, first compound 3.16 µM): 42.6%
- viability, T/C (second compound 1 µM, first compound 10 µM): 30%
- viability, T/C [9]: 29.9%
- viability, T/C (second compound 3.16 µM, first compound 0.1 µM): 46.2%
- viability, T/C [10]: 21.3%
- viability, T/C (second compound 3.16 µM, first compound 1 µM): 25.1%
- viability, T/C (second compound 3.16 µM, first compound 3.16 µM): 17.1%
- viability, T/C (second compound 3.16 µM, first compound 10 µM): 9.2%
- viability, T/C [11]: 7.38%
- viability, T/C (second compound 10 µM, first compound 0.1 µM): 11.6%
- viability, T/C [12]: 10.1%
- viability, T/C (second compound 10 µM, first compound 1 µM): 3.67%
- viability, T/C (second compound 10 µM, first compound 3.16 µM): 3.05%
- viability, T/C (second compound 10 µM, first compound 10 µM): 1.88%

Compound: Cn1ncnc1[C@H]1c2n[nH]c(=O)c3cc(F)cc(c23)N[C@@H]1c1ccc(F)cc1 + CN(C)c1ccc(Nc2c3ccc(NC(=O)CCN4CCCC4)cc3nc3cc(NC(=O)CCN4CCCC4)ccc23)cc1
- IC50 (second compound 0.0316 µM): > 316 nM
- IC50 (second compound 0.1 µM): > 316 nM
- IC50 (second compound 0.316 µM): 205 nM
- IC50 (second compound 1 µM): 14.9 nM
- IC50 (second compound 3.16 µM): < 0.999 nM
- IC50 (second compound 10 µM): < 0.999 nM
- viability, T/C (second compound 0.0316 µM, first compound 0.000999 µM): 112%
- viability, T/C (second compound 0.0316 µM, first compound 0.00316 µM): 94%
- viability, T/C (second compound 0.0316 µM, first compound 0.00999 µM): 85%
- viability, T/C [1]: 74.7%
- viability, T/C (second compound 0.0316 µM, first compound 0.0999 µM): 67.4%
- viability, T/C [2]: 66.6%
- viability, T/C (second compound 0.1 µM, first compound 0.000999 µM): 115%
- viability, T/C (second compound 0.1 µM, first compound 0.00316 µM): 87.6%
- viability, T/C (second compound 0.1 µM, first compound 0.00999 µM): 90.3%
- viability, T/C [3]: 87.6%
- viability, T/C (second compound 0.1 µM, first compound 0.0999 µM): 81.9%
- viability, T/C [4]: 65.3%
- viability, T/C (second compound 0.316 µM, first compound 0.000999 µM): 68.9%
- viability, T/C (second compound 0.316 µM, first compound 0.00316 µM): 79.3%
- viability, T/C (second compound 0.316 µM, first compound 0.00999 µM): 72.8%
- viability, T/C [5]: 61.9%
- viability, T/C (second compound 0.316 µM, first compound 0.0999 µM): 60.5%
- viability, T/C [6]: 44.6%
- viability, T/C (second compound 1 µM, first compound 0.000999 µM): 54.3%
- viability, T/C (second compound 1 µM, first compound 0.00316 µM): 49.3%
- viability, T/C (second compound 1 µM, first compound 0.00999 µM): 62.1%
- viability, T/C [7]: 34.1%
- viability, T/C (second compound 1 µM, first compound 0.0999 µM): 38.2%
- viability, T/C [8]: 47.9%
- viability, T/C (second compound 3.16 µM, first compound 0.000999 µM): 35.7%
- viability, T/C (second compound 3.16 µM, first compound 0.00316 µM): 24%
- viability, T/C (second compound 3.16 µM, first compound 0.00999 µM): 24.9%
- viability, T/C [9]: 18.5%
- viability, T/C (second compound 3.16 µM, first compound 0.0999 µM): 28.6%
- viability, T/C [10]: 17.7%
- viability, T/C (second compound 10 µM, first compound 0.000999 µM): 9.05%
- viability, T/C (second compound 10 µM, first compound 0.00316 µM): 13.8%
- viability, T/C (second compound 10 µM, first compound 0.00999 µM): 8.55%
- viability, T/C [11]: 12.2%
- viability, T/C (second compound 10 µM, first compound 0.0999 µM): 5.71%
- viability, T/C [12]: 8.04%
